From patent US20250206734A1, “BICYCLIC HETEROCYCLES AS MRGPRX2 ANTAGONISTS” (Incyte Corporation, priority 2023, published 2025)

Tests used:
Assay type in all cases: cell-based
MRGPRX2 [1] = biological target: T1, MRGPRX2 (Homo sapiens, UniProt Q96LB1); assay: MRGPRX2 β-Arrestin Assay; set-up: host or cells: PathHunter CHO-K1; conditions: PathHunter CHO-K1 MRGPRX2 β-Arrestin cell line; agonist Cortistatin 14 0.25 μM
T1 sequence (Q96LB1 1-330): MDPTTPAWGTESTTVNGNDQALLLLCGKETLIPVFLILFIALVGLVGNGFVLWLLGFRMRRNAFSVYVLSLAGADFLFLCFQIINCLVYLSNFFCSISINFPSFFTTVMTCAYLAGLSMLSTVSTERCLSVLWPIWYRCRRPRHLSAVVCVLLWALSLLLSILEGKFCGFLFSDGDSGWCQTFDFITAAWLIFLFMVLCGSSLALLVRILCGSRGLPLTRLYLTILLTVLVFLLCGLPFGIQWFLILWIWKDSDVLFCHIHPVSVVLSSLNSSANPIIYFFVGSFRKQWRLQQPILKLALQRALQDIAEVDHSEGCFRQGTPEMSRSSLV
Source text: Example C: MRGPRX2 β-Arrestin Assay
This assay measures compound inhibition of β-Arrestin recruitment, which is part of the G protein-independent pathway that results from the ligand-activated GPCR phosphorylation by specific GPCR kinases. The PathHunter CHO-K1 MRPGRX2 B-Arrestin Cell line stably expressing ProLink tagged MRGPRX2 and Enzyme Acceptor Tagged B-Arrestin was purchased from Eurofins DiscoverX, (Fremont, CA).
The cells were maintained in culture medium from the Europhins DiscoverX Cell Culture Kit-107 which includes FBS, hygromycin B and G418. For the assay, the cells were harvested and were resuspended with Cell Plating Reagent 2 (Eurofins DiscoverX). Cells were added 10000 cells in 25 μL/well to a 384-well black cell culture plate (Greiner VWR, Radnor, PA) which contained 125 nL/well of compound at a selected serially diluted concentration range or DMSO. The plate was incubated at 37° C. with 5% CO2 for 1 h. 2 μL/well of agonist Cortistatin 14 was diluted in Protein Dilution Buffer, (Eurofins DiscoverX) for a final concentration of 0.25 μM, was added and the plate was incubated at 37° C. with 5% CO2 for 90 min. 14 μL/well of Detection Reagent Mix (PathHunter Detection Kit, Eurofins DiscoverX) was added to the plates and further incubated for 1 h in the dark. Plates were read on the PHERAstar microplate reader (BMG Labtech Cary, NC) measuring luminescence 0.1 to 1 s per well. Data was normalized using DMSO only wells and wells with high concentration of reference antagonist as controls. Compound IC50 curves were globally fitted with 3- or 4-parameter Hill equation in a Genedata Screener (Genedata Basel, Switzerland).

MRGPRX2 [2] = biological target: T1, MRGPRX2; assay: MRGPRX2 FLIPR Calcium Mobilization Assay; set-up: host or cells: CHO-K1; conditions: CHO-K1 cells stably expressing human MRGPRX2; Ca2+ release; agonist Cortistatin-14 at EC80
Protocol: Example A. MRGPRX2 FLIPR Calcium Mobilization Assay
Chinese hamster ovary (CHO-K1) cells stably expressing human MRGPRX2 were purchased from Genescript (Piscataway, NJ). The cells were maintained in culture medium (Ham's F-12K) containing 10% (v/v) FBS, 200 μg/mL Zeocin, 100 units/mL penicillin G and 100 μg/mL streptomycin (Life Technologies, Carlsbad, CA). For the assay, the cells were harvested and resuspended with culture medium without Zeocin before plating at 8000 cells per well in 20 μL in 384-well black clear bottom cell culture plates (VWR, Radnor, PA). After 24 hour culture at 37° C. and 5% CO2, the cells were loaded with 20 μL/well of calcium dye (FLIPR Calcium 6 Assay Kit, Molecular Devices, San Jose, CA) diluted in loading buffer (1× Hank's Balanced Salt Solution (HBSS), 5 mM probenecid, 20 mM 4-(2-hydroxyethyl)-1-piperazineethanesulfonic acid (HEPES), pH 7.4, VWR, Radnor, PA) followed with 45 min incubation at 37° C. and 40 min. at r.t. in the dark. Cells were then treated with the addition of 10 uL/well test compounds with a range of increasing concentrations diluted in the assay buffer (1×HBSS, 20 mM HEPES, pH 7.4, VWR, Radnor, PA) with FLIPR Penta (Molecular Devices. San Jose, CA) and incubated for 30 min. at r.t. Ca^2+ release was measured with FLIPR Penta with 10 s basal fluorescence measurement, then 12.5 μL of 5× agonist Cortistatin-14 (Tocris, Minneapolis, MN) at final concentration corresponding to the EC80 were added followed with continued fluorescence signal monitoring for an additional 110 s. The base line adjusted (median of first 10s base line) max value of the Relative Fluorescence Unit (RFU) was plotted against compound concentrations. Wells with no compound were served as the positive controls, and wells with high concentration of reference antagonist were used as negative controls. IC50 curves were globally fitted with 3- or 4-parameter Hill equation in a Genedata Screener (Genedata Basel, Switzerland).

MRGPRX2 [3] = biological target: T1, MRGPRX2; assay: MRGPRX2 IP1 HTRF Assay; set-up: host or cells: CHO-K1; conditions: CHO-K1 cells stably expressing human MRGPRX2; IP1 accumulation; agonist Cortistatin 14 1 μM
Source text: Example B: MRGPRX2 IP1 HTRF Assay
This assay measures compound inhibition of myo-Inositol 1 phosphate (IP1) accumulation in CHO-K1 cells. Chinese hamster ovary (CHO-K1) cells stably expressing human MRGPRX2 were purchased from GenScript (Piscataway, NJ).
For the HTRF IP1 determination, an IP-One GqKit (Perkin Elmer Cisbio, Waltham, MA), which includes all reagents and buffers in this protocol, was used. The cells were maintained in culture medium (Ham's F-12K) containing 10% (v/v) FBS, and 200 μg/mL Zeocin. For the assay, the cells were harvested and resuspended in culture medium with 2% FBS and without Zeocin, then were passed through a 40 μm filter. Cells were added at 20000 cells in a 5 μL/well to a 384-well white small volume cell culture plate (Greiner VWR, Radnor, PA) which contained 50 nL/well of test compound serially diluted at a selected concentration range in DMSO. 5 μL/well of prepared 2× Stimulation Buffer2 was then added to plates and was incubated at 37° C. with 5% CO2 for 1 h. 5 μL/well of agonist Cortistatin 14 (Bio-TechneR&D Systems, Minneapolis, MN) in 1× Stimulation Buffer 2, for a 1 μM final concentration, was then added to plates and incubated at 37° C. with 5% CO2 for 1 h. 6 μL/well of 1:20 diluted Detection Reagent Mix (d2 and Cryptate) was added to the plates and incubated for 1 h in the dark. Plates were read on the PHERAstar microplate reader (BMG Labtech Cary, NC) to determine the HTRF ratio of the acceptor and donor emission signals. The IP1 concentrations were calculated from a standard curve following the IP-One GQ kit instructions. Wells with DMSO only and wells with high concentration of reference antagonist were used as controls for normalization. Compound IC50 curves were globally fitted with 3- or 4-parameter Hill equation in a Genedata Screener (Genedata Basel, Switzerland).

IC50 (MRGPRX2 [1]) [nM]	IC50 (MRGPRX2 [2]) [nM]	IC50 (MRGPRX2 [3]) [nM]	Compound
0.1 to 100	0.1 to 100	0.1 to 100	CC(c1cc2ncc(Oc3ccc(F)cc3F)cc2cn1)N1CCCC1c1ccccc1 (stereo not drawn) [Example 3, 3-(2,4-Difluorophenoxy)-7-(1-(2-phenylpyrrolidin-1-yl)ethyl)-1,6-naphthyridine]
0.1 to 100	0.1 to 100	0.1 to 100	CC(c1cc2ncc(Oc3ccc(F)cc3F)cc2cn1)N1CCC(F)(F)C(c2ccc(=O)[nH]c2)C1 (stereo not drawn) [Example 4, 5-(1-(1-(3-(2,4-Difluorophenoxy)-1,6-naphthyridin-7-yl)ethyl)-4,4-difluoropiperidin-3-yl)pyridin-2(1H)-one]
0.1 to 100	0.1 to 100	100 to 1000	Fc1ccc(Oc2cnc3cc(C(N4CCCCC4)C(F)(F)F)ncc3c2)c(F)c1 (stereo not drawn) [Example 5, 3-(2,4-Difluorophenoxy)-7-(2,2,2-trifluoro-1-(piperidin-1-yl)ethyl)-1,6-naphthyridine]
0.1 to 100	0.1 to 100	0.1 to 100	Fc1ccc(Oc2cnc3cc(C(N4CCC(F)(F)CC4)C(F)(F)F)ncc3c2)c(F)c1 (stereo not drawn) [Example 6, 3-(2,4-Difluorophenoxy)-7-(1-(4,4-difluoropiperidin-1-yl)-2,2,2-trifluoroethyl)-1,6-naphthyridine]
0.1 to 100	0.1 to 100	0.1 to 100	Fc1ccc(Oc2cnc3cc(C(N4CCCC4c4ccccc4)C(F)(F)F)ncc3c2)c(F)c1 (stereo not drawn) [Example 7, 3-(2,4-Difluorophenoxy)-7-(2,2,2-trifluoro-1-(2-phenylpyrrolidin-1-yl)ethyl)-1,6-naphthyridine]
0.1 to 100	0.1 to 100	0.1 to 100	Fc1ccc(Oc2cnc3cc(C(N4CCCC4c4ccncc4)C(F)(F)F)ncc3c2)c(F)c1 (stereo not drawn) [Example 12, 3-(2,4-Difluorophenoxy)-7-(2,2,2-trifluoro-1-(2-(pyridin-4-yl)pyrrolidin-1-yl)ethyl)-1,6-naphthyridine]
0.1 to 100	0.1 to 100	0.1 to 100	NC(=O)[C@@H]1CCCN1C(c1cc2ncc(Oc3ccc(F)cc3F)cc2cn1)C(F)(F)F (stereo partly drawn) [Example 14, (2S)-1-(1-(3-(2,4-Difluorophenoxy)-1,6-naphthyridin-7-yl)-2,2,2-trifluoroethyl)pyrrolidine-2-carboxamide]
0.1 to 100	0.1 to 100	0.1 to 100	COc1ccc(C2CCCN2C(c2cc3ncc(Oc4ccc(F)cc4F)cc3cn2)C(F)(F)F)cc1 (stereo not drawn) [Example 15, 3-(2,4-Difluorophenoxy)-7-(2,2,2-trifluoro-1-(2-(4-methoxyphenyl)pyrrolidin-1-yl)ethyl)-1,6-naphthyridine]
0.1 to 100	0.1 to 100	0.1 to 100	O=c1ccc(C2CCCN(C(c3cc4ncc(Oc5ccc(F)cc5F)cc4cn3)C(F)(F)F)C2)cn1CC(F)(F)F (stereo not drawn) [Example 16, 5-(1-(1-(3-(2,4-Difluorophenoxy)-1,6-naphthyridin-7-yl)-2,2,2-trifluoroethyl)piperidin-3-yl)-1-(2,2,2-trifluoroethyl)pyridin-2(1H)-one]
